Molecular target: T1, BA/F3-FLT3-ITD + D835Y (Homo sapiens, UniProt P36888, D835Y, cells depend on it, form not given)
T1 sequence (P36888 with tags, fused parts or gaps INS600HVDFREYEYD/D835Y): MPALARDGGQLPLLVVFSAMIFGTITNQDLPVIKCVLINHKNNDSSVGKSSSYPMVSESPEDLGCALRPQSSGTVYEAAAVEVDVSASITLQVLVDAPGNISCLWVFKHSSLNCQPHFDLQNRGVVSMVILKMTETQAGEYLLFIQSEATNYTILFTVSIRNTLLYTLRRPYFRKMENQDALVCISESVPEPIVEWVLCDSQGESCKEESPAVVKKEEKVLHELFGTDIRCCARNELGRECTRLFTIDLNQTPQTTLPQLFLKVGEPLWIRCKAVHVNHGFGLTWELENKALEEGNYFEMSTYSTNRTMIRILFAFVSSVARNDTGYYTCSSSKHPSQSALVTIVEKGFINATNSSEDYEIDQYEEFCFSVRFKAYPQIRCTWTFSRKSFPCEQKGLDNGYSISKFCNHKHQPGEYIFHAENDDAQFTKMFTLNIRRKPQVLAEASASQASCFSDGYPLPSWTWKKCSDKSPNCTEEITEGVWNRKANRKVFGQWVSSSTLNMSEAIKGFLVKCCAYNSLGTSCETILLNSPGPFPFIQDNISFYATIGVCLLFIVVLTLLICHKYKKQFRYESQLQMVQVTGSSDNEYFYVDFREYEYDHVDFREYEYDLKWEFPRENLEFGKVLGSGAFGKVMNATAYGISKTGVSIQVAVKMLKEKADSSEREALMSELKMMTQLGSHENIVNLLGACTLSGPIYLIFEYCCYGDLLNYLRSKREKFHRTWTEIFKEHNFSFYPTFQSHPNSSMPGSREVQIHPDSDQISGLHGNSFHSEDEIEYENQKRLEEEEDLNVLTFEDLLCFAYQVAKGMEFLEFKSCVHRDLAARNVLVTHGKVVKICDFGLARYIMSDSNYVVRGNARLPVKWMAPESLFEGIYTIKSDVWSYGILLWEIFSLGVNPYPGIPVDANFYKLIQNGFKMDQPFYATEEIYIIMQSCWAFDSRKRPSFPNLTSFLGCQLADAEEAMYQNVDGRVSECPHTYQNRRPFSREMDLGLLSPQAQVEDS
Assay: Engineered BA/F3 cell growth assay, FLT3 ITD/D835Y
Format: cell-based, murine
Settings: 3 d growth
Method in brief: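 Murine Ba/F3 cells transfected with full-length FLT3 ITD/D835Y, grown without IL-3 so growth depends on FLT3. Seeded at 1×10^4 cells/well, 8-point 1:3 series to 1 μM top (0.2% DMSO), 3 days at 37 °C. CellTiter-Glo luminescence (ATP) versus concentration gave IC50.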

GI50, 0.0001 to 10 µM:
COc1ncc(NC(=O)Cc2ccc(-c3cnc4[nH]c(-c5ccc(C#N)nc5)cc4c3)cc2F)cc1C(F)(F)F [Compound P-0011, 2-[4-[2-(6-cyano-3-pyridyl)-1H-pyrrolo[2,3-b]pyridin-5-yl]-2-fluoro-phenyl]-N-[6-methoxy-5-(trifluoromethyl)-3-pyridyl]acetamide]
COc1ncc(NC(=O)Cc2ccc(-c3cnc4[nH]c(-c5ccnc(C#N)c5)cc4c3)cc2F)cc1C(F)(F)F [Compound P-0013, 2-[4-[2-(2-cyano-4-pyridyl)-1H-pyrrolo[2,3-b]pyridin-5-yl]-2-fluoro-phenyl]-N-[6-methoxy-5-(trifluoromethyl)-3-pyridyl]acetamide]
COc1ncc(NC(=O)Cc2ccc(-c3cnc4[nH]c(-c5ccc(C#N)nc5)cc4c3)c(F)c2)cc1C(F)(F)F [Compound P-0014, 2-[4-[2-(6-cyano-3-pyridyl)-1H-pyrrolo[2,3-b]pyridin-5-yl]-3-fluoro-phenyl]-N-[6-methoxy-5-(trifluoromethyl)-3-pyridyl]acetamide]
COc1ncc(NC(=O)Cc2ccc(-c3cnc4[nH]c(-c5cnn(C(F)F)c5)cc4c3)cc2F)cc1C(F)(F)F [Compound P-0015, 2-[4-[2-[1-(difluoromethyl)pyrazol-4-yl]-1H-pyrrolo[2,3-b]pyridin-5-yl]-2-fluoro-phenyl]-N-[6-methoxy-5-(trifluoromethyl)-3-pyridyl]acetamide]
COc1ncc(NC(=O)Cc2ccc(-c3cnc4[nH]c(-c5ccnc(C#N)c5)cc4c3)c(F)c2)cc1C(F)(F)F [Compound P-0016, 2-[4-[2-(2-cyano-4-pyridyl)-1H-pyrrolo[2,3-b]pyridin-5-yl]-3-fluoro-phenyl]-N-[6-methoxy-5-(trifluoromethyl)-3-pyridyl]acetamide]
Cn1cc(Nc2ncc(-c3ccc(CC(=O)Nc4cc(C(F)(F)F)ccn4)cc3F)cn2)cn1 [Compound P-0017, 2-[3-fluoro-4-[2-[(1-methylpyrazol-4-yl)amino]pyrimidin-5-yl]phenyl]-N-[4-(trifluoromethyl)-2-pyridyl]acetamide]
Cn1cnc(Nc2ncc(-c3ccc(CC(=O)Nc4cc(C(F)(F)F)ccn4)cc3F)cn2)c1 [Compound P-0018, 2-[3-fluoro-4-[2-[(1-methylimidazol-4-yl)amino]pyrimidin-5-yl]phenyl]-N-[4-(trifluoromethyl)-2-pyridyl]acetamide]
Cn1cc(Nc2ncc(-c3cc(F)c(CC(=O)Nc4cc(C(F)(F)F)ccn4)cc3F)cn2)cn1 [Compound P-0019, 2-[2,5-difluoro-4-[2-[(1-methylpyrazol-4-yl)amino]pyrimidin-5-yl]phenyl]-N-[4-(trifluoromethyl)-2-pyridyl]acetamide]
Cn1cnc(Nc2ncc(-c3cc(F)c(CC(=O)Nc4cc(C(F)(F)F)ccn4)cc3F)cn2)c1 [Compound P-0020, 2-[2,5-difluoro-4-[2-[(1-methylimidazol-4-yl)amino]pyrimidin-5-yl]phenyl]-N-[4-(trifluoromethyl)-2-pyridyl]acetamide]
O=C(Cc1cc(F)c(-c2cnc(Nc3cnn(C(F)F)c3)nc2)cc1F)Nc1cc(C(F)(F)F)ccn1 [Compound P-0021, 2-[4-[2-[[1-(difluoromethyl)pyrazol-4-yl]amino]pyrimidin-5-yl]-2,5-difluoro-phenyl]-N-[4-(trifluoromethyl)-2-pyridyl]acetamide]
Cn1cnc(Nc2ncc(-c3ccc(CC(=O)Nc4cc(C(F)(F)F)ccn4)cc3)cn2)c1 [Compound P-0022, 2-[4-[2-[(1-methylimidazol-4-yl)amino]pyrimidin-5-yl]phenyl]-N-[4-(trifluoromethyl)-2-pyridyl]acetamide]
O=C(Cc1ccc(-c2cnc(Nc3cnn(C(F)F)c3)nc2)cc1)Nc1cc(C(F)(F)F)ccn1 [Compound P-0023, 2-[4-[2-[[1-(difluoromethyl)pyrazol-4-yl]amino]pyrimidin-5-yl]phenyl]-N-[4-(trifluoromethyl)-2-pyridyl]acetamide]
COc1cc(-c2cc3cc(-c4ccc(CC(=O)Nc5cncc(C(F)(F)F)c5)cc4F)cnc3[nH]2)ccn1 [Compound P-0200, 2-(3-fluoro-4-(2-(2-methoxypyridin-4-yl)-1H-pyrrolo[2,3-b]pyridin-5-yl)phenyl)-N-(5-(trifluoromethyl)pyridin-3-yl)acetamide]
O=C(Cc1ccc(-c2cnc3[nH]c(-c4ccnc(N5CCOCC5)c4)cc3c2)c(F)c1)Nc1cncc(C(F)(F)F)c1 [Compound P-0201, 2-[3-fluoro-4-[2-(2-morpholino-4-pyridyl)-1H-pyrrolo[2,3-b]pyridin-5-yl]phenyl]-N-[5-(trifluoromethyl)-3-pyridyl]acetamide]
CCOc1n[nH]c2ncc(-c3ccc(CC(=O)Nc4cnc(OC)c(C(F)(F)F)c4)cc3F)cc12 [Compound P-0202, 2-[4-(3-ethoxy-1H-pyrazolo[3,4-b]pyridin-5-yl)-3-fluoro-phenyl]-N-[6-methoxy-5-(trifluoromethyl)-3-pyridyl]acetamide]
COc1ncc(NC(=O)Cc2ccc(-c3cnc4[nH]nc(N)c4c3)c(F)c2)cc1C(F)(F)F [Compound P-0203, 2-[4-(3-amino-1H-pyrazolo[3,4-b]pyridin-5-yl)-3-fluoro-phenyl]-N-[6-methoxy-5-(trifluoromethyl)-3-pyridyl]acetamide]
CC(C)(O)C#Cc1cc2cc(-c3ccc(CC(=O)Nc4cncc(C(F)(F)F)c4)cc3)cnc2[nH]1 [Compound P-0204, 2-[4-[2-(3-hydroxy-3-methyl-but-1-ynyl)-1H-pyrrolo[2,3-b]pyridin-5-yl]phenyl]-N-[5-(trifluoromethyl)-3-pyridyl]acetamide]
Cn1cc(Nc2ncc(-c3ccc(CC(=O)Nc4cncc(C(F)(F)F)c4)cc3F)cn2)cn1 [Compound P-0205, 2-[3-fluoro-4-[2-[(1-methylpyrazol-4-yl)amino]pyrimidin-5-yl]phenyl]-N-[5-(trifluoromethyl)-3-pyridyl]acetamide]
COc1ncc(NC(=O)Cc2ccc(-c3cnc(Nc4cnn(C)c4)nc3)c(F)c2)cc1C(F)(F)F [Compound P-0206, 2-[3-fluoro-4-[2-[(1-methylpyrazol-4-yl)amino]pyrimidin-5-yl]phenyl]-N-[6-methoxy-5-(trifluoromethyl)-3-pyridyl]acetamide]
Cn1cc(Nc2ncc(-c3cc(F)c(CC(=O)Nc4cncc(C(F)(F)F)c4)cc3F)cn2)cn1 [Compound P-0207, 2-[2,5-difluoro-4-[2-[(1-methylpyrazol-4-yl)amino]pyrimidin-5-yl]phenyl]-N-[5-(trifluoromethyl)-3-pyridyl]acetamide]
COc1ncc(NC(=O)Cc2cc(F)c(-c3cnc(Nc4cnn(C)c4)nc3)cc2F)cc1C(F)(F)F [Compound P-0208, 2-[2,5-difluoro-4-[2-[(1-methylpyrazol-4-yl)amino]pyrimidin-5-yl]phenyl]-N-[6-methoxy-5-(trifluoromethyl)-3-pyridyl]acetamide]
